The values that follow come from patent publication US11696913B2, “Prolonged ectoparasite-controlling agent for animal” (MITSUI CHEMICALS AGRO, INC., priority 2017, dated 2023).

Like-named read-outs stand apart in the source and are kept apart here.

One assay concerns Amblyomma americanum. As to the kind of experiment: In vitro contact test with hard ticks (Amblyomma americanum nymphs). The note with it: read-out: acaricidal activity; for pest or weed control at 1 µg/cm2, 1 µg/cm2: dose 1 μg/cm^2, 48 h; for pest or weed control at 0.2 µg/cm2, 0.2 µg/cm2: dose 0.2 μg/cm^2, 48 h. In short, it runs like this:
(§1)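 Adult R. sanguineus, I. ricinus, D. variabilis or A. americanum nymphs exposed in glass vials coated with compound from acetone (900 ppm gives 5 μg/cm^2). Held 48 h at room temperature (R. sanguineus) or 21° C., 85% rel. hum.; then heated at 45-50° C. ≤5 min, motionless or uncoordinated ticks scored dead/moribund.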

The next assay has as its system Laodelphax striatellus. As to the kind of experiment: Insecticidal testing against small brown planthopper. The class given is in vivo. The note with it: 144 h, concentration 100 ppm, sprayed rice seedlings, after 6 days, read-out: pesticidal rate. The procedure, abridged: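 Acetone solution of compound at a set concentration sprayed onto rice seedlings, air-dried, then exposed to 10 planthoppers (one group). Held at 25° C; survival rate recorded after 6 days.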

The next assay relates to Dermacentor variabilis. As to the kind of experiment: Systemic treatment in-vivo test with American dog tick nymph on rats. The note with it: Dermacentor variabilis, ip, intraperitoneal injection. As for the experimental part: Systemic Treatment In-Vivo Test with American Dog Tick Nymph and Cat Flea on Rats
Type of study and overall study design: The method is a randomized non-blinded efficacy study in accordance with European animal welfare requirements. Rats (Rattus norvegicus) were randomized based on pre-treatment flea counts. The efficacy of treatment was determined by comparison of the flea and tick counts of different treatment groups versus the placebo-treated control group. The experimental unit was the individual study animal. Method and route of administration: The compound was applied in a suitable solvent and carrier (more specifically, added to glycerol formal; in case of poorly soluble compounds, a solvent mixture with up to 25% by volume of N-methyl pyrrolidone may be used.) considering the individual body weight as an intraperitoneal injection.
(§2) Experimental infestation: On the day of treatment and weekly thereafter, 30 ticks (D. variabilis nymphs) were released onto the back of each rat, and 30 fleas (C. felis) were released onto the back of each rat 24 h later.
Tick and Flea counting: Rats were thoroughly examined and ticks and fleas were manually removed 48 h (±4 h) after tick infestation and 24 h after flea infestation. Live fleas and live attached engorged ticks were counted. In non-evident cases, engorgement status was evaluated by squeezing the tick on a filter paper to find traces of blood as sign for engorgement.

A further assay relates to Rhipicephalus sanguineus. Briefly: In vitro contact test with adult hard ticks (Rhipicephalus sanguineus). The note with it: read-out: acaricidal activity; for pest or weed control at 0.2 µg/cm2, 0.2 µg/cm2: dose 0.2 μg/cm^2, 48 h; for pest or weed control at 1 µg/cm2, 1 µg/cm2: dose 1 μg/cm^2, 48 h; for pest or weed control at 0.04 µg/cm2, 0.04 µg/cm2: dose 0.04 μg/cm^2, 48 h. The procedure, abridged: as §1

The next assay concerns Ixodes ricinus. Briefly: In vitro contact test with adult hard ticks (Ixodes ricinus). The note with it: read-out: acaricidal activity; for pest or weed control at 5 µg/cm2, 5 µg/cm2: dose 5 μg/cm^2, 48 h; for pest or weed control at 1 µg/cm2, 1 µg/cm2: dose 1 μg/cm^2, 48 h; for pest or weed control at 0.2 µg/cm2, 0.2 µg/cm2: dose 0.2 μg/cm^2, 48 h. The procedure, abridged:
as §1

The next assay relates to Ctenocephalides felis. Briefly: Topical treatment in-vivo test with cat flea on rats. The note with it: topical spot-on, 10 mg/kg. As for the experimental part: Topical Treatment In-Vivo Test with American Dog Tick Nymph and Cat Flea on Rats
Type of study and overall study design: The method is a randomized non-blinded efficacy study in accordance with European animal welfare requirements. Rats (Rattus norvegicus) were randomized based on pre-treatment flea counts. The efficacy of treatment was determined by comparison of the flea and tick counts of different treatment groups versus the placebo-treated control group. The experimental unit was the individual study animal.
Method and route of administration: The compound was applied in a suitable solvent and carrier (more specifically, added to the following mixture: 33.3% by weight propylene carbonate, […] N-methylpyrrolidone, 0.1% by weight BHA, 0.05% by weight BHT) considering the individual body weight as topical spot-on between the shoulder blades directly onto the skin.
as §2
Tick and Flea counting: Rats were thoroughly examined and ticks and fleas were manually removed 48 h (+4 h) after tick infestation and 24 h after flea infestation. Live fleas and live attached engorged ticks were counted. In non-evident cases, engorgement status was evaluated by squeezing the tick on a filter paper to find traces of blood as sign for engorgement.

Setting [1] is: SD 2, read-out: Geometric mean percent reduction in live tick (Dermacentor variabilis) counts compared to untreated control rats.
Where [2] appears, read: SD 9, read-out: Geometric mean percent reduction in live tick (Dermacentor variabilis) counts compared to untreated control rats.
Setting [3] is: SD 16, read-out: Geometric mean percent reduction in live tick (Dermacentor variabilis) counts compared to untreated control rats.
[4] abbreviates: SD 23, read-out: Geometric mean percent reduction in live tick (Dermacentor variabilis) counts compared to untreated control rats.
The mark [5] stands for this setting: SD 30, read-out: Geometric mean percent reduction in live tick (Dermacentor variabilis) counts compared to untreated control rats.

Regarding `CN(C(=O)c1ccc(C(F)(F)F)nc1)c1cccc(C(=O)Nc2c(I)cc(C(F)(C(F)(F)F)C(F)(F)C(F)(F)F)cc2C(F)(F)F)c1F` (stereo not shown) [Compound 119], in the assay with Amblyomma americanum, the pest or weed control at 1 µg/cm2, 1 µg/cm2 is 90%. Besides, the pest or weed control at 100 ppm in the assay on Laodelphax striatellus was at least 70%. The inhibition in vivo at 2 mg/kg with Dermacentor variabilis (setting [1]) amounted to 100%; in the assay on Dermacentor variabilis (setting [2]), 96%; in the assay on Dermacentor variabilis (setting [3]), 63%; with Dermacentor variabilis (setting [4]) it was 1%; with Dermacentor variabilis (setting [5]), 61%. The inhibition in vivo at 10 mg/kg worked out at 100% in the assay on Dermacentor variabilis (setting [1]); 100% in the assay with Dermacentor variabilis (setting [2]); 100% with Dermacentor variabilis (setting [3]); 89% in the assay on Dermacentor variabilis (setting [4]); 61% with Dermacentor variabilis (setting [5]).

`CN(C(=O)c1ccc(F)cc1)c1cccc(C(=O)Nc2c(I)cc(C(F)(C(F)(F)F)C(F)(F)C(F)(F)F)cc2C(F)(F)F)c1F` (stereo not shown) [Compound 37]: the pest or weed control at 0.2 µg/cm2, 0.2 µg/cm2 with Amblyomma americanum and with Rhipicephalus sanguineus was 90% in each case. Besides, the pest or weed control at 1 µg/cm2, 1 µg/cm2 in the assay on Amblyomma americanum and in the assay with Rhipicephalus sanguineus was 90% each time. Further, the inhibition in vivo at 10 mg/kg in the assay on Dermacentor variabilis (setting [1]) was determined as 100%; in the assay with Dermacentor variabilis (setting [2]), 100%; with Dermacentor variabilis (setting [3]) it was 99%; in the assay on Dermacentor variabilis (setting [4]), 99%; in the assay on Dermacentor variabilis (setting [5]), 80%.

For `CN(C(=O)c1ccc(F)nc1)c1cccc(C(=O)Nc2c(I)cc(C(F)(C(F)(F)F)C(F)(F)F)cc2C(F)(F)F)c1F` [Compound 115, 6-fluoro-N-(2-fluoro-3-((2-iodo-4-(perfluoropropan-2-yl)-6-(trifluoromethyl)phenyl)carbamoyl)phenyl)-N-methylnicotinamide], the pest or weed control at 0.2 µg/cm2, 0.2 µg/cm2 in the assay on Amblyomma americanum and with Rhipicephalus sanguineus was 90% in each case. The pest or weed control at 1 µg/cm2, 1 µg/cm2 in the assay with Amblyomma americanum and with Rhipicephalus sanguineus was 90% throughout. Besides, the pest or weed control at 5 µg/cm2, 5 µg/cm2 with Ixodes ricinus came out at 90%. The pest or weed control at 100 ppm in the assay with Laodelphax striatellus is at least 70%. For the same compound, the pest or weed control at 0.04 µg/cm2, 0.04 µg/cm2 in the assay with Rhipicephalus sanguineus amounted to 90%. For the same compound, the inhibition in vivo at 10 mg/kg worked out at 100% in the assay on Dermacentor variabilis (setting [1]); 99% with Dermacentor variabilis (setting [2]); 86% with Dermacentor variabilis (setting [3]); 46% in the assay with Dermacentor variabilis (setting [4]); 17% in the assay with Dermacentor variabilis (setting [5]).

On to `CN(C(=O)c1ccc(F)cc1)c1cccc(C(=O)Nc2c(I)cc(C(F)(C(F)(F)F)C(F)(F)F)cc2OC(F)(F)F)c1F` [Compound 74], for which the pest or weed control at 0.2 µg/cm2, 0.2 µg/cm2 in the assay on Amblyomma americanum and with Rhipicephalus sanguineus was 90% in each case. Also, the pest or weed control at 1 µg/cm2, 1 µg/cm2 in the assay on Amblyomma americanum, in the assay on Ixodes ricinus and with Rhipicephalus sanguineus was 90% throughout. In addition, in the assay on Ixodes ricinus, the pest or weed control at 5 µg/cm2, 5 µg/cm2 is 90%. Moreover, the pest or weed control at 100 ppm in the assay with Laodelphax striatellus was at least 70%. Moreover, the pest or weed control at 0.04 µg/cm2, 0.04 µg/cm2 in the assay with Rhipicephalus sanguineus is 90%. Also, the inhibition in vivo at 10 mg/kg with Dermacentor variabilis (setting [1]) stood at 100%; in the assay on Dermacentor variabilis (setting [2]), 100%; with Dermacentor variabilis (setting [3]) it was 90%; in the assay on Dermacentor variabilis (setting [4]), 89%; in the assay with Dermacentor variabilis (setting [5]) it was 78%.

Regarding `CN(C(=O)c1ccc(F)cc1)c1cccc(C(=O)Nc2c(I)cc(C(F)(C(F)(F)F)C(F)(F)F)cc2C(F)(F)F)c1F` [Compound 24], the pest or weed control at 0.2 µg/cm2, 0.2 µg/cm2 in the assay on Amblyomma americanum and in the assay with Ixodes ricinus was 90% each time. The pest or weed control at 1 µg/cm2, 1 µg/cm2 in the assay on Amblyomma americanum, in the assay with Ixodes ricinus and in the assay with Rhipicephalus sanguineus was 90% throughout. Besides, in the assay on Ixodes ricinus, the pest or weed control at 5 µg/cm2, 5 µg/cm2 was 90%. Also, the “Geometric mean percent reduction in live flea (Ctenocephalides felis) counts compared to untreated control rats” value was 100% in the assay with Ctenocephalides felis (SD 2); 99% with Ctenocephalides felis (SD 9); 97% with Ctenocephalides felis (SD 16); 96% in the assay on Ctenocephalides felis (SD 23); 77% in the assay on Ctenocephalides felis (SD 30).

As for `CN(C(=O)c1ccc(C(F)(F)F)nc1)c1cccc(C(=O)Nc2c(I)cc(C(F)(C(F)(F)F)C(F)(F)F)cc2C(F)(F)F)c1F` [Compound 66, N-(2-fluoro-3-((2-iodo-4-(perfluoropropan-2-yl)-6-(trifluoromethyl)phenyl)carbamoyl)phenyl)-N-methyl-6-(trifluoromethyl)nicotinamide], the pest or weed control at 100 ppm with Laodelphax striatellus was at least 70%. Besides, the pest or weed control at 0.2 µg/cm2, 0.2 µg/cm2 in the assay with Rhipicephalus sanguineus came to 90%. In the assay on Rhipicephalus sanguineus, the pest or weed control at 1 µg/cm2, 1 µg/cm2 came out at 90%. In addition, the inhibition in vivo at 10 mg/kg came out at 100% in the assay with Dermacentor variabilis (setting [1]); 100% with Dermacentor variabilis (setting [2]); 100% with Dermacentor variabilis (setting [3]); 100% in the assay on Dermacentor variabilis (setting [4]); 95% in the assay on Dermacentor variabilis (setting [5]).

For the compound `CN(C(=O)c1ccc(F)cc1)c1cccc(C(=O)Nc2c(I)cc(C(F)(C(F)(F)F)C(F)(F)C(F)(F)F)cc2OC(F)F)c1F` (stereo not shown) [Compound 103], the pest or weed control at 0.2 µg/cm2, 0.2 µg/cm2 in the assay on Amblyomma americanum, in the assay with Ixodes ricinus and in the assay with Rhipicephalus sanguineus was 90% throughout. The pest or weed control at 1 µg/cm2, 1 µg/cm2 in the assay with Amblyomma americanum and in the assay on Rhipicephalus sanguineus was 90% throughout. Besides, the pest or weed control at 5 µg/cm2, 5 µg/cm2 in the assay with Ixodes ricinus was found to be 90%. Besides, in the assay with Laodelphax striatellus, the pest or weed control at 100 ppm was at least 70%. Also, the inhibition in vivo at 10 mg/kg with Dermacentor variabilis (setting [1]) worked out at 100%; in the assay on Dermacentor variabilis (setting [2]), 100%; in the assay with Dermacentor variabilis (setting [3]), 74%; in the assay on Dermacentor variabilis (setting [4]), 43%.
